# Patent US20140371244A1, “METHOD FOR TREATING PROSTATE CANCER BY USE OF PHARMACEUTICAL COMPOSITION CONTAINING A3 ADENOSINE RECEPTOR AGONIST” (priority 2009, published 2014)
# Key:
# [1] = system: PC-3 cells; assay: Cell cycle analysis (FACS) in PC-3 cells; format: cell-based, human; details: 40, 20 and 10 μM, 48 hours
# Protocol: (§1) Cells were treated with 40, 20 and 10 μM of thio-Cl-IB-MECA and cultured for 48 hours, and the cell cycle of the cells was analyzed by flow cytometer analysis (FACS). Specifically, cells were diluted with 10% FBS-containing medium to a density of 1.0×10^6 cells per 100 mm culture dish and cultured under the conditions of 37° C. and 5% CO2 for 24 hours, followed by washing twice with PBS. Thio-Cl-IB-MECA was diluted in 10% FBS-containing medium at required concentration, and then 10 ml of the culture medium prepared in the 100 mm culture dish was added thereto and cultured for a given time. The non-adherent cells and adherent cells in the cell medium were collected and washed twice with PBS, after which 500 μL of 100% cold methanol was added thereto and the cells were fixed at 4° C. The cells were washed twice with PBS and allowed to stand in RNase A-containing solution for 30 minutes, after which the cells were stained with propidium iodide (PI) buffer for 5 minutes. After removal of the PI buffer, the cells were transferred into a polystyrene round-bottom tube, and cell cycle analysis was performed by FACScalibur® flow cytometry.
# [2] = system: Human colorectal cancer HCT116 cells; assay: Morphological change of HCT116 cells; format: cell-based; details: 40 μM, 48 hours
# Protocol: Human colorectal cancer HCT116 cells were treated with 40 μM of thio-Cl-IB-MECA and cultured for 48 hours, and then the morphological change of the cells was observed.
# Specifically, HCT116 cells were diluted with 10% FBS (Fetal Bovine Serum)-containing medium to a density of 1.0×10^6 cells per 100 mm culture dish and cultured under the conditions of 37° C. and 5% CO2, followed by washing twice with PBS (Phosphate Buffered Saline). Thio-Cl-IB-MECA was diluted to a concentration of 40 μM, and then 10 ml of the culture medium prepared in the 100 mm culture dish was added thereto and incubated for a given time. The morphology of the cells was observed as a function of treatment time and concentration (FIG. 19).
# [3] = system: human colorectal cancer HCT 116 cells; assay: Cell cycle analysis (FACS) in HCT 116 cells; format: cell-based; details: 40 μM, 24 and 36 hours
# Protocol: as §1, with “with 40” for “with 40, 20 and 10”, “for 24 and 36” for “for 48”, “medium to a concentration of 40 μM,” for “medium at required concentration,”, “and the” for “and cell”, “cycle of the cells” for “cycle analysis”, “was analyzed” for “was performed”
# [4] = system: HCT 116 cells; assay: Western blot of cell cycle regulation-related proteins and Wnt signaling in HCT 116 cells; format: cell-based, human; details: 40 μM
# Protocol: Because it was confirmed that thio-Cl-IB-MECA arrests the G1 phase of human colorectal cancer HCT 116 cells, a test was carried out to examine whether cell cycle regulation-related proteins involved in the G1 phase are expressed and to examine the expression of Wnt-related proteins in order to examine whether the inhibitory effect of thio-Cl-IB-MECA on the proliferation of cancer cells is attributable to regulation of the signaling pathway.
# Specifically, HCT 116 cells were diluted with 10% FBS-containing medium to a density of 1×10^6 cells per 100 mm culture dish and cultured under the conditions of 37° C. and 5% CO2 for 24 hours, followed by washing twice with PBS. Thio-Cl-IB-MECA was diluted in 10% FBS-containing medium to a concentration of 40 μM, and then 10 ml of the culture medium prepared in the 100 mm culture dish was added thereto and cultured for a given period. The non-adherent cells and adherent cells in the cell medium were collected and washed twice with PBS, after which the cells were suspended in boiling cell lysis buffer and heated at 100° C. for 5 minutes. The cells were cooled and then stored at […], and the stored cells were thawed at 37° C. immediately before use in protein quantification and electrophoresis. Protein quantification was performed using the BCA method, and […] of protein was electrophoresed on 8-12% SDS-polyacrylamide gel at 150 V for 110 minutes. The gel at the desired site was cut and transferred to a PVDF (polyvinylidene fluoride) for 1 hour, and after which it was washed twice with PBST and stirred in blocking buffer at room temperature for 1 hour. Then, the membrane was washed three times with PBST for 5 minutes each time, after which primary antibody was diluted at a ratio of 1:1,000-1:2,000 with 3% skimmed milk/PBST, and it was sealed together with the membrane and incubated with stirring at 4° C. for 12 hours or more. The membrane was washed 2-3 times with PBST for 5 minutes each time, after which HRP-conjugated secondary antibody was diluted at a ratio of 1:1,500-1:2,000 and incubated with the membrane at room temperature for 2-3 hours. The membrane was washed three times with PBST for 5 minutes each time and treated with a Western blot substrate (WESTSAVE Up™), and the produced luminescence was examined using LAS-3000.
smiles,measurement,setting,value
"CNC(=O)[C@H]1S[C@@H](n2cnc3c(NCc4cccc(I)c4)nc(Cl)nc32)[C@H](O)[C@@H]1O [thio-Cl-IB-MECA, 2-chloro-N^6-(3-iodobenzyl)-4′-thioadenosine-5′-N-methyluronamide]","G1 phase of cell cycle, PC-3",[1],an increase in the G1 phase appeared
same,"number of the cells, HCT116",[2],decreased
same,"G1 phase of cell cycle, HCT 116",[3],an increase in the G1 phase
same,Wnt signaling pathway,[4],inhibited the Wnt signaling pathway
same,expression of Rb and p-Rb,[4],also inhibited the expression
same,"expression of cyclin D1, cyclin A and cyclin E",[4],inhibited the expression
same,expression of p53,[4],increased the expression
